In BindingDB's records for doi:10.1016/s0960-894x(00)00605-3 (Merck Research Laboratories, 2001):

target: Histone deacetylase (Eimeria tenella); test: Binding affinity towards HDAC enzyme derived from Eimeria tenella protozoa

Q: For CCC(=O)CCCCC[C@@H]1NC(=O)[C@H]2CCCCN2C(=O)[C@H]([C@@H](C)CC)NC(=O)[C@H](c2cnc3ccccc3c2N2CCCCC2)NC1=O, which Ki is on record?
A: 20 nM

Q: Which Ki does the source give for CCC(=O)CCCCC[C@@H]1NC(=O)[C@H]2CCCCN2C(=O)[C@H]([C@@H](C)CC)NC(=O)[C@H](c2cn(OC)c3ccccc3c2=O)NC1=O here?
A: 30 nM

Q: With CCC(=O)CCCCC[C@@H]1NC(=O)[C@H]2CCCCN2C(=O)[C@H]([C@@H](C)CC)NC(=O)[C@H](c2cn(CC)c3ccccc3c2=O)NC1=O as the compound, how does the Ki read?
A: 70 nM

Q: Which Ki does the source give for CCC(=O)CCCCC[C@@H]1NC(=O)[C@H]2CCCCN2C(=O)[C@H]([C@@H](C)CC)NC(=O)[C@H](c2cnc3ccccc3c2O)NC1=O here?
A: 10 nM

Q: With CCC(=O)CCCCC[C@@H]1NC(=O)[C@H]2CCCCN2C(=O)[C@H]([C@@H](C)CC)NC(=O)[C@H](c2cnc3ccccc3c2Cl)NC1=O as the compound, how does the Ki read?
A: 50 nM

Q: Which Ki does the source give for CCCCCCCCCCC(=O)C[C@@H]1NC(=O)[C@H](CCCCCC(=O)CC)NC(=O)[C@H]2CCCCN2C(=O)[C@H]([C@@H](C)CC)NC1=O here?
A: > 1000 nM

Q: For CCC(=O)CCCCC[C@@H]1NC(=O)[C@H]2CCCCN2C(=O)[C@H]([C@@H](C)CC)NC(=O)[C@@H](c2cnc3ccccc3c2O)NC1=O, which Ki is on record?
A: 250 nM

target: not listed separately; test: Inhibitory activity against histone deacetylase enzyme derived from partially purified extracts of Eimeria tenella protozoa using [3H]11 as radioligand

Q: Which IC50 does the source give for CCC(=O)CCCCC[C@@H]1NC(=O)[C@H]2CCCCN2C(=O)[C@H]([C@@H](C)CC)NC(=O)[C@H](C(=O)c2c[nH]c3ccccc23)NC1=O here?
A: 10 nM

target: histone deacetylase enzyme from partially purified extracts of Eimeria tenella; test: ChEBML_79057
Description: Inhibitory activity against histone deacetylase enzyme derived from partially purified extracts of Eimeria tenella protozoa using [3H]11 as radioligand

Q: Which IC50 does the source give for CCC(=O)CCCCC[C@@H]1NC(=O)[C@H]2CCCCN2C(=O)[C@H]([C@@H](C)CC)NC(=O)[C@H](c2cnc3ccccc3c2N2CCCCC2)NC1=O here?
A: 0.8 nM

Q: Which IC50 does the source give for CCC(=O)CCCCC[C@@H]1NC(=O)[C@H]2CCCCN2C(=O)[C@H]([C@@H](C)CC)NC(=O)[C@H](CC2CN(OC)c3ccc(Br)cc32)NC1=O (stereo not given in full) here?
A: 2500 nM

Q: With CCCn1cc(C(O)c2nc(O)c(CCCCCC(=O)CC)[nH]c(O)c3n(c(O)c([C@@H](C)CC)[nH]c2=O)CCCC3)c2ccccc21 (stereo not given in full) as the compound, how does the IC50 read?
A: 4 nM

Q: Which IC50 does the source give for CCC(=O)CCCCCc1[nH]c(O)c2n(c(O)c([C@@H](C)CC)[nH]c(=O)c(C(O)c3ccc4c(ccn4C)c3)nc1O)CCCC2 (stereo not given in full) here?
A: 30 nM

Q: For CCC(=O)CCCCC[C@@H]1NC(=O)[C@H]2CCCCN2C(=O)[C@H]([C@@H](C)CC)NC(=O)[C@H](c2cn(OC)c3ccccc3c2=O)NC1=O, which IC50 is on record?
A: 4 nM

Q: With CCC(=O)CCCCCc1[nH]c(O)c2n(c(O)c([C@@H](C)CC)[nH]c(=O)c(C(O)c3c[nH]c4ccccc34)nc1O)CCCC2 (stereo not given in full) as the compound, how does the IC50 read?
A: 23 nM

Q: For CCC(=O)CCCCC[C@@H]1NC(=O)[C@H]2CCCCN2C(=O)[C@H]([C@@H](C)CC)NC(=O)[C@H](Cc2cn(CC)c3ccccc23)NC1=O, which IC50 is on record?
A: 100 nM

Q: With CCC(=O)CCCCC[C@@H]1NC(=O)[C@H]2CCCCN2C(=O)[C@H]([C@@H](C)CC)NC(=O)[C@H](c2cn(CC)c3ccccc3c2=O)NC1=O as the compound, how does the IC50 read?
A: 11 nM

Q: With CCC(=O)CCCCC[C@@H]1NC(=O)[C@H]2CCCCN2C(=O)[C@H]([C@@H](C)CC)NC(=O)[C@H](Cc2cn(C)c3ccccc23)NC1=O as the compound, how does the IC50 read?
A: 5 nM

Q: With CCC(=O)CCCCC[C@@H]1NC(=O)[C@H]2CCCCN2C(=O)[C@H]([C@@H](C)CC)NC(=O)[C@H](CCOc2ccccc2)NC1=O as the compound, how does the IC50 read?
A: 3 nM

Q: With CCC(=O)CCCCCc1[nH]c(O)c2n(c(O)c([C@@H](C)CC)[nH]c(=O)c(CC(O)c3ccccc3[N+](=O)[O-])nc1O)CCCC2 (stereo not given in full) as the compound, how does the IC50 read?
A: 33 nM

Q: For CCC(=O)CCCCC[C@@H]1NC(=O)[C@H]2CCCCN2C(=O)[C@H]([C@@H](C)CC)NC(=O)[C@H](Cc2cn(OC)c3ccc(Br)cc23)NC1=O, which IC50 is on record?
A: 175 nM

Q: For CCC(=O)CCCCC[C@@H]1NC(=O)[C@H]2CCCCN2C(=O)[C@H]([C@@H](C)CC)NC(=O)[C@H](Cc2c[nH]c3ccccc23)NC1=O, which IC50 is on record?
A: 1 nM

Q: For CCC(=O)CCCCC[C@@H]1NC(=O)[C@H]2CCCCN2C(=O)[C@H]([C@@H](C)CC)NC(=O)[C@H](Cc2c(-c3ccc4c(ccn4C)c3)[nH]c3ccccc23)NC1=O, which IC50 is on record?
A: 25 nM

Q: With CCC(=O)CCCCC[C@@H]1NC(=O)[C@H]2CCCCN2C(=O)[C@H]([C@@H](C)CC)NC(=O)[C@H](Cc2c(Br)[nH]c3ccccc23)NC1=O as the compound, how does the IC50 read?
A: 200 nM

Q: Which IC50 does the source give for CCC(=O)CCCCC[C@@H]1NC(=O)[C@H]2CCCCN2C(=O)[C@H]([C@@H](C)CC)NC(=O)[C@H](c2cnc3ccccc3c2Cl)NC1=O here?
A: 2 nM

Q: Which IC50 does the source give for CCC(=O)CCCCC[C@@H]1NC(=O)[C@H]2CCCCN2C(=O)[C@H]([C@@H](C)CC)NC(=O)[C@H](Cc2cn(CC(=O)O)c3ccccc23)NC1=O here?
A: 100 nM
